PMC2892826 (Cell cycle (Georgetown, Tex.), 2009)
Like-named read-outs stand apart in the source and are kept apart here.

Key:
[1] = tested on: p27^Kip1 levels in A549 lung cancer cells; test: Western blot of p27Kip1 in cultured A549 cells; format: cell-based, human; details: 48 h
[2] = target: tumor PGPH activity of the proteasome (Homo sapiens, UniProt P28072); test: Proteasome activity in A549 tumor lysates after in vivo treatment, PGPH; set-up: species or system nude mice; details: A549 tumors, 1 mpk i.p., 2 h after last injection
[3] = tested on: all cancer and non-transformed cell lines except RPMI-8226; test: MTT cell viability assay, panel of cancer and non-transformed cell lines; format: cell-based; details: Homo sapiens, RPMI-8226, 24 h, read-out: IC50 cell viability (MTT)
T80-Hras ovarian cells = test: MTT cell viability assay; format: cell-based, human; details: Homo sapiens, read-out: IC50 cell viability (MTT)
[4] = target: tumor CT-L activity of the proteasome (Homo sapiens, UniProt P20618+P28074); test: Proteasome activity in A549 tumor lysates after in vivo treatment, CT-L; set-up: species or system nude mice; details: A549 tumors, 1 mpk i.p., 2 h after last injection
[5] = tested on: MCF-7 human breast tumors; test: MCF-7 xenograft in nude mice; format: in vivo; details: MCF-7 s.c. xenograft, 1 mpk i.p. 2x weekly
A549 human lung tumors = test: A549 xenograft in nude mice; format: in vivo; details: A549 s.c. xenograft, 1 mpk i.p. 2x weekly, start ~200 mm^3, 16 days
[6] = tested on: MCF-7/MCF-10A, T80-Hras/T80, C7-Kras/C7 cells; test: TUNEL apoptosis assay in 3 pairs of cell lines; format: cell-based, human; details: 24 h, any of the 6 cell lines
[7] = tested on: primary multiple myeloma cells from patients' bone marrow; test: Cell death of primary MM cells; format: cell-based, human; details: read-out: IC50 Cell Death
[8] = target: tumor T-L activity of the proteasome (Homo sapiens, UniProt Q99436); test: Proteasome activity in A549 tumor lysates after in vivo treatment, T-L; set-up: species or system nude mice; details: A549 tumors, 1 mpk i.p., 2 h after last injection
[9] = tested on: primary multiple myeloma cells from patients' bone marrow; test: Proliferation of primary MM cells; format: cell-based, human; details: read-out: IC50 Proliferation
[10] = target: CT-L activity of purified 20S proteasome (Oryctolagus cuniculus, UniProt G1SU71+G1T4Q9); test: Proteolytic activity of purified 20S proteasome, CT-L; format: biochemical, rabbit; details: CT-L, Bortezomib vs PI-083
CT-L activity of purified 20S proteasome, sequence (G1T4Q9 60-263): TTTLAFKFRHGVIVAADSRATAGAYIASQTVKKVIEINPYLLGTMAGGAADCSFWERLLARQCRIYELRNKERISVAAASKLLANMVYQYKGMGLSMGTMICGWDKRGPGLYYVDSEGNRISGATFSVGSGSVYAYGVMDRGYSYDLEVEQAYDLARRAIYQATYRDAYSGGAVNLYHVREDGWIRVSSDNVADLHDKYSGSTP
CT-L activity of purified 20S proteasome, sequence (G1SU71 29-241): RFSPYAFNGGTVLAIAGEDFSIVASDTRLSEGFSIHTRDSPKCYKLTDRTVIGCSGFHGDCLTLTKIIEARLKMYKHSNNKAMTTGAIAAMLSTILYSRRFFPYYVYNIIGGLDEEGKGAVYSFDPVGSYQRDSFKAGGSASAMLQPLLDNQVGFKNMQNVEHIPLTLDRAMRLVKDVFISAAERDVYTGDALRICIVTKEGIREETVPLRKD

[11] = Homo sapiens, Multiple myeloma cell, 24 h

Structure (SMILES): CC(C)C[C@H](NC(=O)[C@H](Cc1ccccc1)NC(=O)c1cnccn1)B(O)O [Bortezomib]
- p27^Kip1 levels [1]: marked increase
- inhibition of tumor PGPH activity vs vehicle-treated controls [2]: 68%
- IC50 [3]: > 30 µM
- IC50 (T80-Hras ovarian cells; 24 h): > 30000 nM
- IC50 (T80-Hras ovarian cells; 72 h): 24 ± 10 nM
- inhibition of tumor CT-L activity vs vehicle-treated controls [4]: 70%
- antitumor effect (in words) [5]: ineffective
- average tumor size ([5]; start ~200 mm^3, 16 days): 1,448 ± 145 mm^3
- average tumor size (A549 human lung tumors): 864 ± 207 mm^3
- apoptosis (TUNEL) [6]: induced little apoptosis
- IC50 [7, 11]: > 10 µM
- IC50 ([7]; patient 1, 24 h): > 10 µM
- IC50 ([7]; patient 2, 24 h): > 10 µM
- IC50 ([7]; patient 3, 24 h): > 10 µM
- IC50 ([7]; patient 5, 24 h): > 10 µM
- IC50 ([7]; patient 6, 24 h): > 10 µM
- IC50 ([7]; patient 7, 24 h): > 10 µM
- IC50 ([7]; patient 8, 24 h): > 10 µM
- IC50 ([7]; patient 9, 24 h): > 10 µM
- IC50 ([7]; patient 10, 24 h): > 10 µM
- inhibition of tumor T-L activity vs vehicle-treated controls [8]: 0%
- IC50 [9, 11]: > 10 µM
- IC50 ([9]; patient 1, 24 h): > 10 µM
- IC50 ([9]; patient 2, 24 h): > 10 µM
- IC50 ([9]; patient 3, 24 h): > 10 µM
- IC50 ([9]; patient 5, 24 h): > 10 µM
- IC50 ([9]; patient 6, 24 h): > 10 µM
- IC50 ([9]; patient 7, 24 h): > 10 µM
- IC50 ([9]; patient 8, 24 h): > 10 µM
- IC50 ([9]; patient 9, 24 h): > 10 µM
- IC50 ([9]; patient 10, 24 h): > 10 µM
- difference in potency between Bortezomib and PI-083 [10]: 100 fold
